In PMC9490236, “Accurate de novo design of membrane-traversing macrocycles” (Cell, 2022):
Where a SMILES comes first, the peptide text is derived from it. [ ]: non-standard residue; d: D form. NMeF = CN[C@@H](Cc1ccccc1)C(=O)O; dNMeF = CN[C@H](Cc1ccccc1)C(=O)O; NMeL = CN[C@@H](CC(C)C)C(=O)O; dNMeL = CN[C@H](CC(C)C)C(=O)O; NMeNle = CCCC[C@H](NC)C(=O)O; Nle = CCCC[C@H](N)C(=O)O; dNMeA = CN[C@H](C)C(=O)O; Sar = CNCC(=O)O

Conditions: Caco-2

SMILES	permeability in transwell assays
CC(C)C[C@@H]1NC(=O)[C@@H]2CCCN2C(=O)[C@H]2CCCN2C(=O)CN(C)C(=O)[C@@H](Cc2ccccc2)N(C)C(=O)[C@@H](CC(C)C)NC(=O)[C@@H](CC(C)C)N(C)C(=O)[C@@H]2CCCN2C(=O)[C@H](CC(C)C)N(C)C(=O)[C@H](CC(C)C)N(C)C1=O [Design D10.22, PRO LEU *LEU *LEU PRO *DLEU DLEU *DPHE *GLY DPRO] (cyclo(L[NMeL][NMeL]P[dNMeL][dL][dNMeF][Sar][dP]P))	not permeable
CC(C)C[C@@H]1NC(=O)[C@@H](CC(C)C)N(C)C(=O)[C@@H]2CCCN2C(=O)[C@H](CC(C)C)N(C)C(=O)[C@@H](C)NC(=O)[C@@H](CC(C)C)N(C)C(=O)[C@@H]2CCCN2C(=O)[C@@H](CC(C)C)N(C)C(=O)[C@H](CC(C)C)N(C)C(=O)[C@H](Cc2ccccc2)NC1=O [Design D10.21, *LEU *DLEU PRO *DLEU DALA *LEU PRO *DLEU LEU PHE] (cyclo(F[NMeL][dNMeL]P[dNMeL][dA][NMeL]P[dNMeL]L))	not permeable

Same assay, conditions: PAMPA

SMILES	PAMPA_Papp_Avg	PAMPA_R1	PAMPA_R3
CC(C)C[C@@H]1C(=O)N(C)[C@@H](Cc2ccccc2)C(=O)N[C@@H](C(C)C)C(=O)N2CCC[C@H]2C(=O)NCC(=O)N2CCC[C@H]2C(=O)N(C)[C@H](CC(C)C)C(=O)N[C@@H](C(C)C)C(=O)N[C@H](CC(C)C)C(=O)N1C (single isomer, unassigned) [Design D9.43.p2, *DLEU VAL DLEU *DLEU *PHE VAL PRO GLY PRO]	3.30E-06	3.34E-06	3.77E-06
CC[C@H](C)[C@@H]1NC(=O)[C@@H](CC(C)C)NC(=O)[C@H](CC(C)C)NC(=O)[C@H]2CCCN2C(=O)[C@@H]2CCCN2C(=O)[C@H]([C@@H](C)CC)NC(=O)[C@@H](CC(C)C)N(C)C(=O)[C@@H](CC(C)C)N(C)C1=O [Design D8.9, ILE *DLEU *DLEU ILE PRO DPRO LEU DLEU] (cyclo(IP[dP]L[dL]I[dNMeL][dNMeL]))	BQL	BQL	BQL
CC[C@@H](C)[C@H]1NC(=O)[C@H]2CCCN2C(=O)[C@@H]2CCCN2C(=O)[C@H](C(C)C)NC(=O)[C@@H](C(C)C)NC(=O)[C@@H]2CCCN2C(=O)[C@H]2CCCN2C(=O)[C@@H](C)NC1=O [Design D8.11, DALA DPRO PRO DVAL VAL PRO DPRO DILE] (cyclo([dV]VP[dP][dI][dA][dP]P))	BQL	BQL	BQL
CCCC[C@@H]1NC(=O)[C@@H](C)N(C)C(=O)[C@@H]2CCCN2C(=O)[C@@H](CC(C)C)NC(=O)[C@H](CC(C)C)N(C)C(=O)[C@H]2CCCN2C(=O)[C@H](CC(C)C)NC(=O)[C@@H](CC(C)C)NC(=O)[C@@H](C)NC1=O [Design D9.28, DLEU LEU DPRO *LEU DLEU PRO *DALA MET DALA] (cyclo(L[dP][NMeL][dL]P[dNMeA][Nle][dA][dL]))	1.60E-06	1.84E-06	1.41E-06
CC[C@@H](C)[C@H]1NC(=O)[C@@H](C)NC(=O)[C@@H](CC(C)C)NC(=O)[C@@H](Cc2ccccc2)NC(=O)[C@@H]2CCCN2C(=O)[C@@H]2CCCN2C(=O)[C@@H](CC(C)C)N(C)C(=O)[C@@H](C)N(C)C(=O)[C@@H](CC(C)C)NC(=O)[C@H](CC(C)C)NC(=O)[C@@H](Cc2ccccc2)NC1=O [Design D11.18, DALA DILE DPHE LEU DLEU *DALA *DLEU PRO PRO DPHE DLEU] (cyclo(L[dL][dNMeA][dNMeL]PP[dF][dL][dA][dI][dF]))	BQL	BQL	BQL
CCCC[C@@H]1NC(=O)[C@H](C(C)C)NC(=O)[C@H]2CCCN2C(=O)[C@@H]2CCCN2C(=O)[C@H](C)NC(=O)[C@@H](C)N(C)C(=O)[C@@H](CC(C)C)N(C)C(=O)[C@@H](C(C)C)NC(=O)[C@@H]2CCCN2C1=O [Design D9.21, ALA PRO DPRO VAL MET PRO DVAL *DLEU *DALA] (cyclo(AP[dP]V[Nle]P[dV][dNMeL][dNMeA]))	2.94E-07	2.78E-07	3.05E-07
CC[C@H](C)[C@@H]1NC(=O)[C@H](C)NC(=O)[C@@H](CC(C)C)NC(=O)[C@H](CC(C)C)N(C)C(=O)[C@H](CC(C)C)NC(=O)[C@@H](Cc2ccccc2)N(C)C(=O)[C@@H]2CCCN2C(=O)[C@H]([C@@H](C)CC)NC(=O)[C@H](Cc2ccccc2)N(C)C(=O)[C@@H](CC(C)C)NC1=O [Design D10.55, DLEU ALA ILE DLEU *PHE ILE PRO *DPHE LEU *LEU] (cyclo(AI[dL][NMeF]IP[dNMeF]L[NMeL][dL]))	BQL	BQL	BQL
CC[C@H](C)[C@@H]1NC(=O)[C@H](C(C)C)NC(=O)[C@@H](CC(C)C)N(C)C(=O)[C@H](Cc2ccccc2)N(C)C(=O)[C@H]2CCCN2C(=O)[C@H](C(C)C)NC(=O)[C@@H](C)NC(=O)[C@H](CC(C)C)N(C)C(=O)[C@H]2CCCN2C(=O)[C@@H](Cc2ccccc2)NC1=O [Design D10.9, DPRO *LEU DALA VAL DPRO *PHE *DLEU VAL ILE DPHE] (cyclo(I[dF][dP][NMeL][dA]V[dP][NMeF][dNMeL]V))	BQL	BQL	BQL
CC[C@@H](C)[C@H]1NC(=O)[C@H](CC(C)C)N(C)C(=O)[C@H]2CCCN2C(=O)[C@H](CC(C)C)NC(=O)[C@H](Cc2ccccc2)N(C)C(=O)CN(C)C(=O)[C@@H](C(C)C)NC(=O)[C@H](C)NC(=O)[C@H]2CCCN2C(=O)[C@@H]2CCCN2C1=O (single isomer, unassigned) [Design D10.58.p2, *GLY *PHE LEU DPRO *LEU DILE PRO DPRO ALA DVAL]	3.23E-07	3.15E-07	2.44E-07
CC(C)C[C@@H]1NC(=O)[C@@H]2CCCN2C(=O)[C@H]2CCCN2C(=O)CN(C)C(=O)[C@@H](Cc2ccccc2)N(C)C(=O)[C@@H](CC(C)C)NC(=O)[C@@H](CC(C)C)N(C)C(=O)[C@@H]2CCCN2C(=O)[C@H](CC(C)C)N(C)C(=O)[C@H](CC(C)C)N(C)C1=O [Design D10.22, PRO LEU *LEU *LEU PRO *DLEU DLEU *DPHE *GLY DPRO] (cyclo(L[NMeL][NMeL]P[dNMeL][dL][dNMeF][Sar][dP]P))	BQL	BQL	BQL
CC[C@H](C)[C@@H]1NC(=O)[C@H](Cc2ccccc2)N(C)C(=O)[C@H]2CCCN2C(=O)[C@@H](CC(C)C)N(C)C(=O)[C@@H](Cc2ccccc2)NC(=O)[C@H](C(C)C)NC(=O)[C@H](CC(C)C)NC(=O)[C@H]2CCCN2C(=O)[C@H](CC(C)C)NC(=O)[C@@H]2CCCN2C1=O [Design D10.50, LEU VAL DPHE *DLEU DPRO *PHE ILE PRO LEU DPRO] (cyclo(IPL[dP]LV[dF][dNMeL][dP][NMeF]))	6.28E-07	8.97E-07	6.88E-07
CC(C)C[C@@H]1C(=O)N(C)[C@@H](Cc2ccccc2)C(=O)N[C@@H](C(C)C)C(=O)N2CCC[C@H]2C(=O)NCC(=O)N2CCC[C@H]2C(=O)N(C)[C@H](CC(C)C)C(=O)N[C@@H](C(C)C)C(=O)N[C@H](CC(C)C)C(=O)N1C (single isomer, unassigned) [Design D9.43.p1, *DLEU VAL DLEU *DLEU *PHE VAL PRO GLY PRO]	9.46E-07	8.93E-07	5.40E-07
CC[C@@H](C)[C@H]1NC(=O)[C@@H](CC(C)C)NC(=O)[C@@H](CC(C)C)NC(=O)[C@@H](C)NC(=O)[C@@H](CC(C)C)NC(=O)[C@H]2CCCN2C(=O)[C@@H]2CCCN2C(=O)[C@H]2CCCN2C(=O)[C@@H](C)NC(=O)[C@@H](CC(C)C)N(C)C(=O)[C@H]2CCCN2C1=O [Design D11.19, DILE DPRO *DLEU DALA DPRO PRO DPRO DLEU DALA DLEU DLEU] (cyclo([dP][dL][dA][dL][dL][dI][dP][dNMeL][dA][dP]P))	BQL	BQL	BQL
CCCC[C@H]1C(=O)N[C@@H]([C@@H](C)CC)C(=O)N2CCC[C@H]2C(=O)N2CCC[C@@H]2C(=O)N[C@H](CC(C)C)C(=O)N[C@@H]([C@@H](C)CC)C(=O)N2CCC[C@@H]2C(=O)N[C@H](Cc2ccccc2)C(=O)N[C@@H](C(C)C)C(=O)N(C)[C@H](CC(C)C)C(=O)N1C [Design D10.44, VAL *DLEU *MET ILE PRO DPRO DLEU ILE DPRO DPHE] (cyclo(IP[dP][dL]I[dP][dF]V[dNMeL][NMeNle]))	BQL	BQL	BQL
CC(C)C[C@@H]1NC(=O)[C@@H](CC(C)C)N(C)C(=O)[C@@H]2CCCN2C(=O)[C@H](CC(C)C)N(C)C(=O)[C@@H](C)NC(=O)[C@@H](CC(C)C)N(C)C(=O)[C@@H]2CCCN2C(=O)[C@@H](CC(C)C)N(C)C(=O)[C@H](CC(C)C)N(C)C(=O)[C@H](Cc2ccccc2)NC1=O [Design D10.21, *LEU *DLEU PRO *DLEU DALA *LEU PRO *DLEU LEU PHE] (cyclo(F[NMeL][dNMeL]P[dNMeL][dA][NMeL]P[dNMeL]L))	BQL	BQL	BQL
CC[C@H](C)[C@@H]1NC(=O)[C@H]2CCCN2C(=O)[C@@H](CC(C)C)N(C)C(=O)[C@H](CC(C)C)NC(=O)[C@@H](C)N(C)C(=O)[C@H]2CCCN2C(=O)[C@@H](CC(C)C)NC(=O)[C@@H](C(C)C)NC(=O)[C@H](CC(C)C)NC(=O)[C@@H](C)NC(=O)[C@@H](Cc2ccccc2)NC(=O)[C@H]2CCCN2C1=O [Design D12.2, ILE DPRO DPHE DALA LEU DVAL DLEU DPRO *DALA LEU *DLEU DPRO] (cyclo(I[dP][dF][dA]L[dV][dL][dP][dNMeA]L[dNMeL][dP]))	BQL	BQL	BQL
CC(C)C[C@@H]1NC(=O)[C@H](CC(C)C)N(C)C(=O)[C@@H](Cc2ccccc2)N(C)C(=O)[C@H](Cc2ccccc2)NC(=O)[C@@H]2CCCN2C(=O)[C@@H](C)NC(=O)[C@@H]2CCCN2C(=O)[C@H](CC(C)C)N(C)C(=O)[C@H](CC(C)C)N(C)C(=O)[C@@H](C(C)C)NC1=O [Design D10.13, *LEU LEU DVAL *LEU *LEU PRO DALA PRO PHE *DPHE] (cyclo(F[dNMeF][NMeL]L[dV][NMeL][NMeL]P[dA]P))	BQL	BQL	BQL
CC(C)C[C@@H]1C(=O)N[C@H](CC(C)C)C(=O)N(C)[C@H](Cc2ccccc2)C(=O)N(C)[C@@H](CC(C)C)C(=O)N(C)[C@H](C)C(=O)N2CCC[C@H]2C(=O)N(C)[C@H](Cc2ccccc2)C(=O)N[C@@H](C(C)C)C(=O)N[C@H](CC(C)C)C(=O)N2CCC[C@H]2C(=O)N1C [Design D10.14, *DPHE VAL DLEU PRO *DLEU DLEU *DPHE *LEU *DALA PRO] (cyclo([NMeL][dNMeA]P[dNMeF]V[dL]P[dNMeL][dL][dNMeF]))	BQL	BQL	BQL
CC(C)C[C@@H]1NC(=O)[C@@H](C(C)C)NC(=O)[C@H](CC(C)C)N(C)C(=O)[C@H]2CCCN2C(=O)[C@@H](C(C)C)NC(=O)[C@H]2CCCN2C(=O)[C@@H](C(C)C)NC(=O)[C@@H](Cc2ccccc2)N(C)C(=O)[C@H](CC(C)C)N(C)C1=O (single isomer, unassigned) [Design D9.8.p2, *LEU DVAL LEU *LEU *DPHE DVAL DPRO DVAL DPRO]	9.35E-07	1.16E-06	8.61E-07
